Results published in article PMC12693701, “Glucosinolate-Derived Metabolites from Barbarea vulgaris (Brassicaceae): Evaluation of Antimicrobial, Antioxidant, and Anti-Inflammatory Potentials” (Molecules, 2025).
≈ marks a conversion by molar mass, not a printed value.

Key:
B. subtilis ATCC 6633 = assay: Inhibition of biofilm formation (crystal violet); type: cell-based, Bacillus subtilis; conditions: for BIC50: biofilm coverage reduced by 50%; for BIC90: biofilm coverage reduced by 90%
Protocol: (§1) The procedure involved preparing 96-well microtiter plates (Sarstedt, Nümbrecht, Germany) by adding 100 μL of Mueller-Hinton nutrient broth to each well. A 10 μL aliquot of bacterial suspension (adjusted to 1.0 McFarland for Gram-positive bacteria and 0.5 McFarland for Gram-negative bacteria) was added to the wells. The plates were then incubated at 37 °C for 48 h to allow biofilm formation. After incubation, the wells were washed twice with 200 μL of sterile 0.85% saline to remove non-adherent and weakly adherent cells. Biofilms formed by the adherent bacteria were fixed with 100 μL of methanol until fully evaporated. The biofilms were then stained using 0.1% (w/v) crystal violet (Fluka Chemie AG, Buchs, Switzerland) and left at room temperature for 20 min. After staining, excess dye was washed off with deionized water, followed by 96% ethanol. Controls included wells containing only nutrient broth to check for sterility and nonspecific binding. Background absorbance from the sterile medium, fixative, and dye was subtracted from the OD readings of the test samples. All experiments were performed in triplicate.
(§2) To assess the inhibition of biofilm formation, 96-well microtiter plates (Sarstedt, Nümbrecht, Germany) were prepared by dispensing 100 μL of Mueller-Hinton broth into each well. From stock solutions of tested compounds (at 10 mg/mL), 100 μL was added to the first row of the plate, followed by twofold serial dilutions (from 5 to 0.039 mg/mL) using a multichannel pipette (Eppendorf AG, Hamburg, Germany). Subsequently, 10 μL of fresh bacterial suspension (adjusted to 0.5 McFarland for Gram-negative and 1.0 McFarland for Gram-positive bacteria) was added to each well. The plates were incubated at 37 °C for 48 h. After incubation, the contents of the wells were carefully removed by tapping, and the remainder of the experiment was conducted following the procedure described above.
(§3) Controls consisted of wells containing only broth or broth with the tested compounds to assess sterility and nonspecific binding. Background absorbance was subtracted from test readings as described earlier. All experiments were performed in triplicate, and tetracycline (Sigma-Aldrich, St. Louis, MO, USA), dissolved in nutrient broth, was used as a reference compound.

S. enterica = assay: Inhibition of biofilm formation (crystal violet); type: cell-based, Salmonella enterica; conditions: for BIC50: biofilm coverage reduced by 50%; for BIC90: biofilm coverage reduced by 90%
Protocol: as §1, §2, §3

S. aureus ATCC 25923 = assay: Inhibition of biofilm formation (crystal violet); type: cell-based, Staphylococcus aureus; conditions: for BIC50: biofilm coverage reduced by 50%; for BIC90: biofilm coverage reduced by 90%
Protocol: as §1, §2, §3

P. mirabilis = assay: Inhibition of biofilm formation (crystal violet); type: cell-based, Proteus mirabilis; conditions: for BIC50: biofilm coverage reduced by 50%; for BIC90: biofilm coverage reduced by 90%
Protocol: as §1, §2, §3

K. pneumoniae = assay: Inhibition of biofilm formation (crystal violet); type: cell-based, Klebsiella pneumoniae; conditions: for BIC50: biofilm coverage reduced by 50%; for BIC90: biofilm coverage reduced by 90%
Protocol: as §1, §2, §3

tested bacterial strains = assay: Microdilution MIC, summary over tested bacterial strains; type: cell-based; conditions: for MIC: read-out: MIC against E. coli ATCC 25922 and S. aureus ATCC 25923 (abstract); for MIC values, range over bacterial strains: all tested bacteria
Protocol: The antimicrobial activity was evaluated against 15 microorganisms. This included 11 bacterial strains: four standard strains (Staphylococcus aureus ATCC 25923, Bacillus subtilis ATCC 6633, Bacillus pumilus NCTC 8241, and Escherichia coli ATCC 25922) and six clinical or environmental isolates (Staphylococcus aureus, Escherichia coli, Bacillus cereus, Proteus mirabilis, Salmonella enterica, and Klebsiella pneumoniae). One probiotic strain, Bifidobacterium animalis subsp. lactis was tested. In addition, four fungal strains, Candida albicans ATCC 10231, Trichoderma viride ATCC 13233, Aspergillus flavus ATCC 9170, and Fusarium solani ATCC 11712 were tested. The bacterial strains were kept in glycerol stock at −80 °C and the fungal strains in paraffin oil stock at 4 °C.
Bacterial and yeast suspensions were prepared using the direct colony method, as previously described by Andrews. The turbidity of the initial suspensions was adjusted to match the 0.5 McFarland standard using a densitometer (Biosan, Riga, Latvia), corresponding to approximately 10^8 colony-forming units (CFU)/mL for bacterial cells and 10^6 CFU/mL for yeast cells. Subsequently, 1:100 dilutions of the initial suspensions were prepared in sterile 0.85% saline. Fungal spore suspensions were obtained by gently harvesting spores from agar slopes containing mature mycelial growth. The collected spore suspensions were then diluted 1:1000 in sterile 0.85% saline prior to use.
Antimicrobial activity was evaluated by determining the minimum inhibitory concentration (MIC) and minimum microbicidal concentration (MMC) using the microdilution plate method with resazurin as an indicator [28]. In the 96-well plates, 100 μL of Mueller–Hinton broth (Torlak, Belgrade, Serbia) for bacterial testing and Sabouraud broth (Torlak, Belgrade, Serbia) for fungal testing were dispensed into each well. The compounds under investigation were initially dissolved in a 10% dimethyl sulfoxide (DMSO) solution, followed by dilution in sterile distilled water, resulting in a working compound solution containing 1% DMSO. A 100 μL aliquot of the stock solution of the tested compound was added to the first row, and twofold serial dilutions were then carried out using a multichannel pipette. The resulting concentration range was from 5 to 0.039 mg/mL. The inoculated microtiter plates were incubated at 37 °C for 24 h for bacteria, at 28 °C for 48 h for yeasts, and at 28 °C for 72 h for molds.
Each test also included growth control and sterility control. All tests were conducted in duplicate. MIC was defined as the lowest concentration of tested compounds that prevented resazurin color change from blue to pink. For molds, MIC values of the tested compound were determined as the lowest concentration that inhibited visible mycelia growth. MMC was determined by inoculation of the nutrient agar medium by plating […] of samples from wells, where no indicator color change was recorded. At the end of the incubation period, the lowest concentration with no growth (no colony) was defined as MMC.

SMILES	BIC50 (B. subtilis ATCC 6633) [µg/mL]	BIC90 (B. subtilis ATCC 6633) [µg/mL]	BIC50 (S. enterica) [µg/mL]	BIC90 (S. enterica) [µg/mL]	BIC50 (S. aureus ATCC 25923) [µg/mL]	BIC90 (S. aureus ATCC 25923) [µg/mL]	BIC50 (P. mirabilis) [µg/mL]	BIC90 (P. mirabilis) [µg/mL]	BIC50 (K. pneumoniae) [µg/mL]	BIC90 (K. pneumoniae) [µg/mL]	antibacterial activity (in words) (tested bacterial strains; tested concentrations 5 to 0.039 mg/mL)	MIC (tested bacterial strains) [µg/mL]	MIC values, range over bacterial strains (tested bacterial strains) [µg/mL]
O=C(O)C1CSC(=S)N1 (stereo not shown) [Compound 3, 2-Thioxothiazolidine-4-carboxylic Acid]	1190	2500	2400	>5000	2500	>5000	3420	>5000	1262	>5000	–	–	–
O=C1NCC(c2ccccc2)S1 (stereo not shown) [Compound 6, 5-phenyl-1,3-thiazolidin-2-one]	–	–	–	–	–	–	–	–	–	–	no detectable antibacterial activity	–	–
Oc1ccc(CCN=C=S)cc1 [Compound 8, 2-(4-hydroxyphenyl)ethyl isothiocyanate]	1100	2300	1547	>5000	868	1360	1428	2400	570	2000	–	312 to 1250 (≈ 1.74 to 6.97 mM)	–
CSC(=S)NCCc1ccc(O)cc1 [Compound 2, methyl-4-hydroxyphenylethyl dithiocarbamate]	290	1250	1100	3200	220	2120	1158	4500	580	3600	–	312 to 1250 (≈ 1.37 to 5.5 mM)	–
O=C1NCC(c2ccccc2)O1 (stereo not shown) [Compound 7, 5-Phenyl-1,3-oxazolidin-2-one]	>5000	>5000	1254	>5000	>5000	>5000	3100	4754	4400	>5000	–	–	–
CSC(=S)NCCc1ccccc1 [Compound 1, Methyl phenethylcarbamodithioate]	–	–	–	–	–	–	–	–	–	–	–	–	1250 to 5000
S=C1NCC(c2ccccc2)O1 (racemic) [Compound 4, rac-5-Phenyl-1,3-oxazolidine-2-thione]	2700	>5000	1000	4470	1500	>5000	3170	>5000	3978	>5000	–	–	1250 to 5000
